The results in this text go back to patent publication US8178668B2, “2-aminopyridine kinase inhibitors” (OSI Pharmaceuticals, LLC, priority 2008, dated 2012).

As a reminder, the IC50 is the concentration that gives 50% inhibition. The low end stands for greater potency in that assay, the high end for weaker potency in that assay.

Where a name gives a salt, the structure may show the parent alone.

One test has as its target RON (human) (Homo sapiens, UniProt Q04912). Briefly: RON kinase AlphaScreen assay (Km of ATP). The test is classed as biochemical. The note with it: ATP at Km; at least duplicate experiments. A digest of the protocol:
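AlphaScreen with PT66 donor/acceptor beads, read after 1 h, detected phosphorylation of biotinylated poly(Glu,Tyr) by human RON. Enzyme-started reactions ran 30 min at room temperature with ATP at Km. Buffer was HEPES pH 7.4 with MgCl2, glycerol, vanadate and 1% DMSO.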
Background: In Alpha technology, singlet oxygen from a donor bead excites a nearby acceptor bead.

A further test concerns the target MET (human) (Homo sapiens, UniProt P08581). The test can be described thus: MET kinase AlphaScreen assay (Km of ATP). Format: biochemical. The note with it: ATP at Km; at least duplicate experiments. Put shortly:
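AlphaScreen detection with PT66 beads (1 h) follows a 60 min room-temperature MET reaction. Substrate is 200 ng/μL biotinylated poly(Glu,Tyr), with ATP set at an enzyme-optimized concentration. Buffer is HEPES pH 7.4 with MgCl2, MnCl2 and 0.334 mM vanadate, compounds at 1% DMSO.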

Chain of RON (human) (Q04912 25-1400): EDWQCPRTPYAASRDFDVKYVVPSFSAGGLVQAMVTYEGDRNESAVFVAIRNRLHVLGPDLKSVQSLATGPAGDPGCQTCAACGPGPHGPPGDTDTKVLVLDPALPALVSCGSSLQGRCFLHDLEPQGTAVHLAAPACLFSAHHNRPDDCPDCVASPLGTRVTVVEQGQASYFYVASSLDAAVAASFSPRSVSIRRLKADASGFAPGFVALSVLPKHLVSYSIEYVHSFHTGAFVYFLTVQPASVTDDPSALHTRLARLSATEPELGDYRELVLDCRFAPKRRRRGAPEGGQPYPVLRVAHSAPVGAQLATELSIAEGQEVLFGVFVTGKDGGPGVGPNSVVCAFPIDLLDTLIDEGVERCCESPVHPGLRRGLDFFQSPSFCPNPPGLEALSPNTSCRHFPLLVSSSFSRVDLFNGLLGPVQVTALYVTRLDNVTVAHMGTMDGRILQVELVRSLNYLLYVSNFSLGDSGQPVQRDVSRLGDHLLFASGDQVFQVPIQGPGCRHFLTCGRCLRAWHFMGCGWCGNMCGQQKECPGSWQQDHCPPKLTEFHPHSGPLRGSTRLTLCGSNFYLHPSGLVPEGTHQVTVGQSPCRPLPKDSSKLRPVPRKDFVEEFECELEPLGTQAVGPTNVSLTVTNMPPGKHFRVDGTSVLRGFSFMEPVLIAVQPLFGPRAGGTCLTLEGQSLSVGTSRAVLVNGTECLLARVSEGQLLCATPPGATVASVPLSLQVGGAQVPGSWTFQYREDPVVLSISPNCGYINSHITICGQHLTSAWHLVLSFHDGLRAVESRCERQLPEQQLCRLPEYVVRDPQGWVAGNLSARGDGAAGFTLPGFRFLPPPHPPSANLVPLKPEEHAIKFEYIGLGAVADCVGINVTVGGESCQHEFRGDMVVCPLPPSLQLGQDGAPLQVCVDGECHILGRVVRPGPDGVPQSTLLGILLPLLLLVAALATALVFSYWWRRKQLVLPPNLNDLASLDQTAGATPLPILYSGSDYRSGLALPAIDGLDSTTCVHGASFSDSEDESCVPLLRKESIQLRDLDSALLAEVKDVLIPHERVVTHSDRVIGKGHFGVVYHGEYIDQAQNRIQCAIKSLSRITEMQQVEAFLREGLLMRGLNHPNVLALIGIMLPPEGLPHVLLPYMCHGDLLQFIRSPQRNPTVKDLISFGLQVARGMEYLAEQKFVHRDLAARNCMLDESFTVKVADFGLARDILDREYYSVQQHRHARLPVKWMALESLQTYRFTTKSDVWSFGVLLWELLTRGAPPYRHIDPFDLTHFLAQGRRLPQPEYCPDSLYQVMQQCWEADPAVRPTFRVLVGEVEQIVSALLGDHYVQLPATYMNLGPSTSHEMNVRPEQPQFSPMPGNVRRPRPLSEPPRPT
Chain of MET (human) (P08581 25-1390): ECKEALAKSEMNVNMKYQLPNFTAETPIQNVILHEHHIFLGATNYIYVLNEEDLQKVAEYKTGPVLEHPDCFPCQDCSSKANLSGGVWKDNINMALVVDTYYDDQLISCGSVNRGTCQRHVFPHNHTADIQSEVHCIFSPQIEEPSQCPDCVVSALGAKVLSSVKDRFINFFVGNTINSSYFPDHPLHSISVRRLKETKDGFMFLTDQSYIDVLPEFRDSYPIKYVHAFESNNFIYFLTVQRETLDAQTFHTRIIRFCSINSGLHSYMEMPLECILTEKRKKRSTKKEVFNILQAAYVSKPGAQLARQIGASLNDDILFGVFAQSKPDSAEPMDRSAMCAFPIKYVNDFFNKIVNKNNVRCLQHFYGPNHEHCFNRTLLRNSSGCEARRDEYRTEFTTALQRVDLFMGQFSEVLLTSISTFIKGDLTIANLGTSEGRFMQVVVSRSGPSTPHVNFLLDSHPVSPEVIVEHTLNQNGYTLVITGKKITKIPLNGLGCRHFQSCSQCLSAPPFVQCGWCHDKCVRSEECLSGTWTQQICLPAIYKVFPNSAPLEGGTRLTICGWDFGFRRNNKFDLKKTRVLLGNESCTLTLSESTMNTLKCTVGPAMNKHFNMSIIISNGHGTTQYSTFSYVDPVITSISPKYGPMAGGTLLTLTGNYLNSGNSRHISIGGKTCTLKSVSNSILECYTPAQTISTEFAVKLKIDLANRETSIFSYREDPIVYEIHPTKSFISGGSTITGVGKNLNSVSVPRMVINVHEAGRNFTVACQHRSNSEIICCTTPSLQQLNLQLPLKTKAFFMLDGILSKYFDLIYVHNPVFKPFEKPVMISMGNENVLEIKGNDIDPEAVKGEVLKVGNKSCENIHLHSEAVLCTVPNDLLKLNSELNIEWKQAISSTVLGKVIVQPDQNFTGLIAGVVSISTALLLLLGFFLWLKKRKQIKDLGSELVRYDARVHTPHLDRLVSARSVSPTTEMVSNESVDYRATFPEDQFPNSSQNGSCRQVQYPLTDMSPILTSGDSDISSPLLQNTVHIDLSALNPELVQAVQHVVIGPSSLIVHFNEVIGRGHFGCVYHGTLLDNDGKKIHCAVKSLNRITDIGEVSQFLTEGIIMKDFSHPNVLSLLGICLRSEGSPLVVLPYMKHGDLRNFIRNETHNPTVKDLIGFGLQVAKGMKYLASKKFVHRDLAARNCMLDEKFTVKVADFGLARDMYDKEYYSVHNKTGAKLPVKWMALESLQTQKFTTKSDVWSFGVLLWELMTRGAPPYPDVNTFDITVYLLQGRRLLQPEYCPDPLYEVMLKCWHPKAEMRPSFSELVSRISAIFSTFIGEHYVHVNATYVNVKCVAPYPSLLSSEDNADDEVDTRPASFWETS

Turning to `Nc1ncc(-c2cnn(CC(=O)N3CCC(O)CC3)c2)cc1-c1nc2ccccc2s1` [Example 139, 2-[4-(6-Amino-5-benzothiazol-2-ylpyridin-3-yl)-pyrazol-1-yl]-1-(4-hydroxypiperidin-1-yl)-ethanone], the IC50 against RON (human) and against MET (human) was 1 to 20 µM throughout.

Regarding `CN(C)C(=O)CN1CCC(n2cc(-c3cnc(N)c(-c4nc5ccccc5s4)c3)cn2)CC1` [Example 164, 2-{4-[4-(6-Amino-5-benzothiazol-2-ylpyridin-3-yl)-pyrazol-1-yl]-piperidin-1-yl}-N,N-dimethylacetamide], the IC50 on RON (human) and against MET (human) was 0.1 to 1 µM throughout.

Regarding `Cc1c(-c2cc(-c3cnn(C4CCNCC4)c3)cnc2N)oc2ccccc12` [Example 94, 3-(3-Methylbenzofuran-2-yl)-5-(1-piperidin-4-yl-1H-pyrazol-4-yl)pyridin-2-ylamine bishydrochloride], the IC50 is 1 to 20 µM on RON (human) and 0.1 to 1 µM at MET (human).

Regarding `Nc1ccc(-c2cnc(N)c(-c3cc4c(Cl)ccc(F)c4cn3)c2)cn1` [Example 81, 5-(5-Chloro-8-fluoroisoquinolin-3-yl)-3,3′-bipyridine-6,6′-diamine], the 50% inhibitory concentration (IC50) against RON (human) and against MET (human) was 1 to 20 µM in each case.

On to `COc1ccc(Cl)c2cc(-c3cc(-c4ccc(C(=O)O)cc4)cnc3N)ncc12` [Example 90, 4-[6-Amino-5-(5-chloro-8-methoxyisoquinolin-3-yl)-pyridin-3-yl]benzoic acid], for which the IC50 at RON (human) and on MET (human) was 0.1 to 1 µM throughout.

With `Nc1ncc(-c2cnn([C@@H]3CN[C@H](C(=O)N4CCC4)C3)c2)cc1-c1nc2ccccc2s1` [Example 160, {(2S,4S)-4-[4-(6-Amino-5-benzothiazol-2-ylpyridin-3-yl)-pyrazol-1-yl]-pyrrolidin-2-yl}-azetidin-1-ylmethanone], the figures for the IC50 against RON (human) and at MET (human) were 0.1 to 1 µM and no more than 0.1 µM, respectively.

`Cc1ccc2cnc(-c3cc(-c4cnn(C5CCNCC5)c4)cnc3N)cc2c1` [Example 4, 3-(6-Methylisoquinolin-3-yl)-5-(1-piperidin-4-yl-1H-pyrazol-4-yl)-pyridin-2-ylamine trihydrochloride]: the IC50 against RON (human) lay in the range of 1 to 20 µM; against MET (human), 0.1 to 1 µM.

As to `COCCN(CCOC)C(=O)C(C)n1cc(-c2cnc(N)c(-c3nc4ccccc4s3)c2)cn1` (stereo not drawn) [Example 143, 2-[4-(6-Amino-5-benzothiazol-2-ylpyridin-3-yl)-pyrazol-1-yl]-N,N-bis-(2-methoxyethyl)-propionamide], the IC50 against RON (human) and on MET (human) was 1 to 20 µM throughout.

In the case of `Nc1ncc(-c2cnn(C3CCNCC3)c2)cc1-c1oc2ccccc2c1-c1cccc(F)c1F` [Example 98, 3-[3-(2,3-Difluorophenyl)benzofuran-2-yl]-5-(1-piperidin-4-yl-1H-pyrazol-4-yl)pyridine-2-ylamine], the IC50 against RON (human) fell in the range of 1 to 20 µM; against MET (human), 0.1 to 1 µM.

For the molecule `Nc1ncc(-c2cnn(C3CCNCC3)c2)cc1-c1nc2ccc(F)cc2s1` [Example 252, 3-(6-Fluorobenzothiazol-2-yl)-5-(1-piperidin-4-yl-1H-pyrazol-4-yl)-pyridin-2-ylamine], the IC50 against RON (human) and on MET (human) was 0.1 to 1 µM in each case.

Turning to `COc1cccc2sc(-c3cc(-c4cnn(C5CCNCC5)c4)cnc3N)nc12` [Example 277, 3-(4-Methoxybenzothiazol-2-yl)-5-(1-piperidin-4-yl-1H-pyrazol-4-yl)-pyridin-2-ylamine], the IC50 at RON (human) and at MET (human) was 0.1 to 1 µM in each case.

In the case of `Nc1ncc(-c2cnn(C3CCNCC3)c2)cc1-c1cc2cccc(C(F)(F)F)c2cn1` [Example 19, 5-(1-Piperidin-4-yl-1H-pyrazol-4-yl)-3-(8-trifluoromethylisoquinolin-3-yl)-pyridin-2-ylamine trihydrochloride salt], the IC50 on RON (human) and at MET (human) was 0.1 to 1 µM throughout.

Regarding `Nc1ncc(-c2cnn(C3CCC(=O)CC3)c2)cc1-c1nc2ccccc2s1` [Example 123, 4-[4-(6-Amino-5-benzothiazol-2-ylpyridin-3-yl)-pyrazol-1-yl]-cyclohexanone], the IC50 on RON (human) and against MET (human) was 0.1 to 1 µM in each case.

Turning to `CN1C2CCC1CC(n1cc(-c3cnc(N)c(-c4nc5ccccc5s4)c3)cn1)C2` (stereo not drawn) [Example 108, 3-Benzothiazol-2-yl-5-[1-(8-methyl-8-azabicyclo [3.2.1]oct-3-yl)-1H-pyrazol-4-yl]-pyridin-2-ylamine trihydrochloride], the IC50 against RON (human) and against MET (human) was no more than 0.1 µM throughout.

`Cc1cccc2nc(-c3cc(-c4cnn(C5CCNCC5)c4)cnc3N)sc12` [Example 263, 3-(7-Methylbenzothiazol-2-yl)-5-(1-piperidin-4-yl-1H-pyrazol-4-yl)-pyridin-2-ylamine]: the IC50 against RON (human) and against MET (human) was no more than 0.1 µM each time.

For `Nc1ncc(-c2cnn(C3CCNCC3)c2)cc1-c1cc2c(-c3nccs3)ccc(F)c2cn1` [Example 55, 3-(8-Fluoro-5-thiazol-2-ylisoquinolin-3-yl)-5-(1-piperidin-4-yl-1H-pyrazol-4-yl)-pyridin-2-ylamine trihydrochloride], the IC50 against RON (human) fell in the range of 1 to 20 µM; against MET (human) it was 0.1 to 1 µM.

As to `N#Cc1cccc2cnc(-c3cc(-c4cnn(C5CCNCC5)c4)cnc3N)cc12` [Example 33, 3-[2-Amino-5-(1-piperidin-4-yl-1H-pyrazol-4-yl)-pyridin-3-yl]-isoquinoline-5-carbonitrile trihydrochloride salt], the IC50 against RON (human) and against MET (human) was 0.1 to 1 µM each time.

With `N#Cc1ccc2nc(-c3cc(-c4cnn(C5CCNCC5)c4)cnc3N)sc2c1` [Example 268, 2-[2-Amino-5-(1-piperidin-4-yl-1H-pyrazol-4-yl)-pyridin-3-yl]-benzothiazole-6-carbonitrile], the IC50 on RON (human) and at MET (human) was 0.1 to 1 µM each time.

As for `COc1ccc2cnc(-c3cc(-c4cnn(C5CCNCC5)c4)cnc3N)cc2c1` [Example 45, 3-(6-Methoxyisoquinolin-3-yl)-5-(1-piperidin-4-yl-1H-pyrazol-4-yl)-pyridin-2-ylamine trihydrochloride], the values for the IC50 against RON (human) and at MET (human) were 1 to 20 µM and 0.1 to 1 µM, respectively.

Consider `CC(C(=O)NCCO)n1cc(-c2cnc(N)c(-c3nc4ccccc4s3)c2)cn1` (stereo not drawn) [Example 147, 2-[4-(6-Amino-5-benzothiazol-2-ylpyridin-3-yl)-pyrazol-1-yl]-N-(2-hydroxyethyl)-propionamide], for which the IC50 on RON (human) and against MET (human) was 1 to 20 µM throughout.

As to `CN(C)C(=O)CCn1cc(-c2cnc(N)c(-c3nc4ccccc4s3)c2)cn1` [Example 295, 3-[4-(6-Amino-5-benzothiazol-2-ylpyridin-3-yl)-pyrazol-1-yl]-N,N-dimethylpropionamide], the IC50 against RON (human) fell in the range of 1 to 20 µM; against MET (human), 0.1 to 1 µM.

Consider `CN(C)C(=O)c1cccc(-c2cnc(N)c(-c3nc4ccccc4s3)c2)c1` [Example 186, 3-(6-Amino-5-benzothiazol-2-ylpyridin-3-yl)-N,N-dimethylbenzamide], for which the values for the IC50 against RON (human) and at MET (human) were greater than 20 µM and 1 to 20 µM, respectively.

With `Nc1ncc(-c2cnn(C3CCNCC3)c2)cc1-c1nc2c(Br)cccc2s1` [Example 265, 3-(4-Bromobenzothiazol-2-yl)-5-(1-piperidin-4-yl-1H-pyrazol-4-yl)-pyridin-2-ylamine], the IC50 on RON (human) was 0.1 to 1 µM; at MET (human), no more than 0.1 µM.

Take `NC(=O)N1CCC(n2cc(-c3cnc(N)c(-c4cc5c(Cl)ccc(F)c5cn4)c3)cn2)CC1` [Example 68, 4-4-[6-Amino-5-(5-chloro-8-fluoroisoquinolin-3-yl)-pyridin-3-yl]-pyrazol-1-ylpiperidine-1-carboxamide bis-hydrochloride]: the IC50 at RON (human) and against MET (human) was 0.1 to 1 µM in each case.

As for `Nc1ncc(-c2cnn(C3CCNCC3)c2)cc1-c1cc2cc(Cl)ccc2cn1` [Example 40, 3-(6-Chloroisoquinolin-3-yl)-5-(1-piperidin-4-yl-1H-pyrazol-4-yl)-pyridin-2-ylamine trihydrochloride], the IC50 against RON (human) and against MET (human) was 0.1 to 1 µM throughout.

Consider `Cc1c(-c2cc(-c3cnn(C4CCNCC4)c3)cnc2N)sc2ccccc12` [Example 105, 3-(3-Methylbenzo[b]thiophen-2-yl)-5-(1-piperidin-4-yl-1H-pyrazol-4-yl)pyridin-2-ylamine bishydrochloride], for which the IC50 against RON (human) and at MET (human) was 1 to 20 µM throughout.

In the case of `Nc1ncc(-c2cnn(C3CCNCC3)c2)cc1-c1cc2cc(F)ccc2cn1` [Example 35, 3-(6-Fluoroisoquinolin-3-yl)-5-(1-piperidin-4-yl-1H-pyrazol-4-yl)-pyridin-2-ylamine], the IC50 at RON (human) and on MET (human) was 1 to 20 µM in each case.

Regarding `CN(C)C(=O)Cn1cc(-c2cnc(N)c(-c3nc4ccccc4s3)c2)cn1` [Example 140, 2-[4-(6-Amino-5-benzothiazol-2-ylpyridin-3-yl)-pyrazol-1-yl]-N,N-dimethylacetamide], the half-inhibitory concentration (IC50) on RON (human) and on MET (human) was 1 to 20 µM each time.

As to `CNC(=O)c1cccc(-c2cnc(N)c(-c3nc4ccccc4s3)c2)c1` [Example 194, 3-(6-Amino-5-benzothiazol-2-ylpyridin-3-yl)-N-methylbenzamide], the IC50 at RON (human) and against MET (human) was greater than 20 µM in each case.

On to `Nc1ncc(-c2cnn(C3CCNCC3)c2)cc1-c1cc2c(-c3ccco3)ccc(F)c2cn1` [Example 48, 3-(8-Fluoro-5-furan-2-ylisoquinolin-3-yl)-5-(1-piperidin-4-yl-1H-pyrazol-4-yl)-pyridin-2-ylamine], for which the IC50 at RON (human) and at MET (human) was 0.1 to 1 µM throughout.
